Paper PMC10376059, “New NADPH Oxidase 2 Inhibitors Display Potent Activity against Oxidative Stress by Targeting p22^phox-p47^phox Interactions” (Antioxidants, 2023)

Tests used:
[1] = molecular target: T1, NOX2 (Homo sapiens, UniProt P14598); assay: NADPH oxidase (NOX2) inhibition, DCF fluorescence in PMA-activated neutrophil-differentiated HL-60 cells; format: cell-based; conditions: for inhibition of NOX2-derived ROS production (in words): PMA-activated HL-60 cells, 0.05 µM to 50 µM; for IC50: neutrophil-differentiated HL-60 cells, PMA 0.8 µM, DCF fluorescence, 0.05 to 50 µM
T1 construct: HL-60 cells expressed the components of NOX2, including gp91, p22^phox, p47^phox, and p67^phox; endogenous in cells; whole cells in A1, membrane preparations in A3 and A4
T1 sequence (P14598 1-390): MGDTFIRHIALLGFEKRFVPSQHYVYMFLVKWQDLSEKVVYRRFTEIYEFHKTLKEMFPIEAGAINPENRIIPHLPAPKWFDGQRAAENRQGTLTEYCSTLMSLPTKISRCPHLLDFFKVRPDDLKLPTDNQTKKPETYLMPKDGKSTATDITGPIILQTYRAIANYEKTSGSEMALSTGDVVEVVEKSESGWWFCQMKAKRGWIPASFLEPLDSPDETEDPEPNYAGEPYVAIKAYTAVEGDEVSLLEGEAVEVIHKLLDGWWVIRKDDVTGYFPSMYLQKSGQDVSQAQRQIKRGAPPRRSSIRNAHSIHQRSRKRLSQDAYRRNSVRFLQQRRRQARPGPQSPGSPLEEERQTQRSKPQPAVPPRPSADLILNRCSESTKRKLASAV
Method: The differentiation of HL-60 cells to neutrophils was performed after reaching a concentration of between 2 × 10^6 and 5 × 10^6 cells/mL in the differentiation medium: RPMI 1640 medium; 10% FBS; 100 IU/mL of penicillin/streptomycin; and 1.3% DMSO for 7 days, replenishing the differentiation medium every 2 days.
The 2′,7′-dichlorofluorescein (DCF) fluorescence analysis was used to determine NADPH oxidase activity in neutrophil-differentiated HL-60 cells. The method, based on a fluorimetric assay, was adapted from Boly et al.. Briefly, 1 × 10^6 neutrophil-differentiated HL-60 cells/mL were incubated for 45 min. at 37 °C in darkness with DCF-DA (1 mg/mL). The cell suspension was then transferred to a 15 mL conical tube and centrifuged at 330× g × 10 min at 37 °C. After the supernatant was removed, the cells were re-suspended in Hanks balanced saline buffer (HBSS, Sigma-Aldrich, St. Louis, MO, USA) and transferred to dark 96-well plates with a flat glass bottom (Thermo Scientific Nunc 96 microwell® black, Optical Botton # 1.5 Cover Glass Base, Thermo Fisher Scientific). Then, 200 μL of cell suspension per well were incubated at 37 °C for 30 min with the indole heteroaryl-acrylonitriles at increasing concentrations (0.05 to 50 μM). […] Finally, PMA (0.8 μM) was added to each well for 10 min. to generate the activation of NOX2. The generation of the DCF fluorescence product was monitored in an automatic microplate reader (FLx800, BioTek Instruments, Winooski, VT, USA) at 1-min intervals at 37 °C for 1 h, using an excitation wavelength of 485 nm and an emission wavelength of 555 nm. The ability to inhibit ROS production by activated neutrophil-differentiated HL-60 cells was compared against the different controls. A control was performed with cells activated by PMA in the presence of DMSO and established as having 100% of the ROS-induced fluorescence. Inhibition control was performed in the presence of VAS2870 (20 µM) and activated by PMA. Another control (NA, not activated) was done with cells in the absence of PMA and the indole heteroaryl-acrylonitriles.
All the experiments were performed in triplicate, using three different cell preparations, and the data were reported as mean ± s.e.m. For the determination of the IC50 of the indole heteroaryl-acrylonitriles, concentration-response curves (0.05 to 50 μM) were constructed. IC50 values were given as the mean ± standard deviation for at least three independent assays. The data were analyzed using one- and two-way ANOVA. A value of p < 0.05 was considered statistically significant. Statistical analyses were performed using the program GraphPad Prism® version 6.00, San Diego, CA, USA.

[2] = MTT cytotoxicity assay; format: cell-based, human; conditions: human; neutrophil-differentiated HL-60 cells, 72 h, 100 µM
Method: To verify the cytotoxicity of the acrylonitrile derivatives, the MTT reduction method was performed. Briefly, HL-60 cells were seeded in a flat-bottomed 96-well plate at a density of 10,000 cells per well. […] In a second series of experiments, cells were incubated under the same conditions but for 72 h. Etoposide was used as a positive control. Ten μL of MTT was added at a final concentration of 0.5 mg/mL, incubated at 37 °C for 4 h, and then solubilized with 10% SDS in 0.1 mM HCl and incubated overnight at 37 °C. Finally, a blue-colored compound (formazan) formation was measured at 570 nm in a multiplate reader (StatFax 4200, Awareness Technology, Inc., Palm City, FL, USA). The viability percentage was obtained as follows: Viability % = [treated cells DO × 100]/[DO cells control].

IC50 [1] | SMILES | inhibition of NOX2-derived ROS production (in words) [1] | viability at 72 h, 100 µM [2]
1100 ± 200 nM | N#C/C(=C\c1cc(-c2ccccc2)on1)C(=O)c1c[nH]c2ccccc12 [Compound C6] | exhibited concentration-dependent inhibition of NOX2 | ~5%
3600 ± 200 nM | N#C/C(=C\c1ccncc1)C(=O)c1c[nH]c2ccccc12 [Compound C14] | exhibited concentration-dependent inhibition of NOX2 | –
